{"source": "patent US8124793B2", "about": "“Derivatives of ethylene methanedisulfonate as cancer chemotherapeutic agents” (priority 2007, dated 2012)", "key": {"EKVX": {"system": "EKVX", "test": "NCI screen, growth of human tumor cells: Non-Small Cell Lung EKVX", "assay_type": "cell-based", "details": "EKVX (Non-Small Cell Lung), 10^−4 molar", "method_in_brief": "(§1)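 NCI screening: compound applied to tumor cell lines at a given molar concentration, growth measured as percent. Minimum 60 data points/compound; cancer type noted.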"}, "NCI-H522": {"system": "NCI-H522", "test": "NCI screen, growth of human tumor cells: Non-Small Cell Lung NCI-H522", "assay_type": "cell-based", "details": "NCI-H522 (Non-Small Cell Lung), 10^−4 molar", "method_in_brief": "as §1"}, "NCI-H460": {"system": "NCI-H460", "test": "NCI screen, growth of human tumor cells: Non-Small Cell Lung NCI-H460", "assay_type": "cell-based", "details": "NCI-H460 (Non-Small Cell Lung), 10^−4 molar", "method_in_brief": "as §1"}, "NCI-H23": {"system": "NCI-H23", "test": "NCI screen, growth of human tumor cells: Non-Small Cell Lung NCI-H23", "assay_type": "cell-based", "details": "NCI-H23 (Non-Small Cell Lung), 10^−4 molar", "method_in_brief": "as §1"}, "HCC-2998": {"system": "HCC-2998", "test": "NCI screen, growth of human tumor cells: HCC-2998 (listed under Non-Small Cell Lung)", "assay_type": "cell-based", "details": "HCC-2998 (under Non-Small Cell Lung), 10^−4 molar", "method_in_brief": "as §1"}, "HCT-116": {"system": "HCT-116", "test": "NCI screen, growth of human tumor cells: Colon Cancer HCT-116", "assay_type": "cell-based", "details": "HCT-116 (Colon Cancer), 10^−4 molar", "method_in_brief": "as §1"}, "HCT-15": {"system": "HCT-15", "test": "NCI screen, growth of human tumor cells: Colon Cancer HCT-15", "assay_type": "cell-based", "details": "HCT-15 (Colon Cancer), 10^−4 molar", "method_in_brief": "as §1"}, "HT29": {"system": "HT29", "test": "NCI screen, growth of human tumor cells: Colon Cancer HT29", "assay_type": "cell-based", "details": "HT-29, 10^−4 molar", "method_in_brief": "as §1"}, "KM12": {"system": "KM12", "test": "NCI screen, growth of human tumor cells: Colon Cancer KM12", "assay_type": "cell-based", "details": "KM12 (Colon Cancer), 10^−4 molar", "method_in_brief": "as §1"}, "SF-268": {"system": "SF-268", "test": "NCI screen, growth of human tumor cells: CNS Cancer SF-268", "assay_type": "cell-based", "details": "SF-268 (CNS Cancer), 10^−4 molar", "method_in_brief": "as §1"}, "SF-295": {"system": "SF-295", "test": "NCI screen, growth of human tumor cells: CNS Cancer SF-295", "assay_type": "cell-based", "details": "SF-295 (CNS Cancer), 10^−4 molar", "method_in_brief": "as §1"}, "SF-539": {"system": "SF-539", "test": "NCI screen, growth of human tumor cells: CNS Cancer SF-539", "assay_type": "cell-based", "details": "SF-539 (CNS Cancer), 10^−4 molar", "method_in_brief": "as §1"}, "U-251": {"system": "U-251", "test": "NCI screen, growth of human tumor cells: CNS Cancer U-251", "assay_type": "cell-based", "details": "U-251 (CNS Cancer), 10^−4 molar", "method_in_brief": "as §1"}, "LOXIMVI": {"system": "LOXIMVI", "test": "NCI screen, growth of human tumor cells: Melanoma LOXIMVI", "assay_type": "cell-based", "details": "LOXIMVI (Melanoma), 10^−4 molar", "method_in_brief": "as §1"}, "M14": {"system": "M14", "test": "NCI screen, growth of human tumor cells: Melanoma M14", "assay_type": "cell-based", "details": "M14 (Melanoma), 10^−4 molar", "method_in_brief": "as §1"}, "MALME-3M": {"system": "MALME-3M", "test": "NCI screen, growth of human tumor cells: Melanoma MALME-3M", "assay_type": "cell-based", "details": "MALME-3M (Melanoma), 10^−4 molar", "method_in_brief": "as §1"}, "SK-MEL-2": {"system": "SK-MEL-2", "test": "NCI screen, growth of human tumor cells: Melanoma SK-MEL-2", "assay_type": "cell-based", "details": "SK-MEL-2 (Melanoma), 10^−4 molar", "method_in_brief": "as §1"}, "SK-MEL-5": {"system": "SK-MEL-5", "test": "NCI screen, growth of human tumor cells: Melanoma SK-MEL-5", "assay_type": "cell-based", "details": "SK-MEL-5 (Melanoma), 10^−4 molar", "method_in_brief": "as §1"}, "UACC-257": {"system": "UACC-257", "test": "NCI screen, growth of human tumor cells: Melanoma UACC-257", "assay_type": "cell-based", "details": "UACC-257 (Melanoma), 10^−4 molar", "method_in_brief": "as §1"}, "UACC-62": {"system": "UACC-62", "test": "NCI screen, growth of human tumor cells: Melanoma UACC-62", "assay_type": "cell-based", "details": "UACC-62 (Melanoma), 10^−4 molar", "method_in_brief": "as §1"}, "IGROVI": {"system": "IGROVI", "test": "NCI screen, growth of human tumor cells: Ovarian Cancer IGROVI", "assay_type": "cell-based", "details": "IGROVI (Ovarian Cancer), 10^−4 molar", "method_in_brief": "as §1"}, "OVCAR-3": {"system": "OVCAR-3", "test": "NCI screen, growth of human tumor cells: Ovarian Cancer OVCAR-3", "assay_type": "cell-based", "details": "OVCAR-3 (Ovarian Cancer), 10^−4 molar", "method_in_brief": "as §1"}, "OVCAR-4": {"system": "OVCAR-4", "test": "NCI screen, growth of human tumor cells: Ovarian Cancer OVCAR-4", "assay_type": "cell-based", "details": "OVCAR-4 (Ovarian Cancer), 10^−4 molar", "method_in_brief": "as §1"}, "OVCAR-8": {"system": "OVCAR-8", "test": "NCI screen, growth of human tumor cells: Ovarian Cancer OVCAR-8", "assay_type": "cell-based", "details": "OVCAR-8 (Ovarian Cancer), 10^−4 molar", "method_in_brief": "as §1"}, "SN12C": {"system": "SN12C", "test": "NCI screen, growth of human tumor cells: Renal Cancer SN12C", "assay_type": "cell-based", "details": "SN12C (Renal Cancer), 10^−4 molar", "method_in_brief": "as §1"}, "DU-145": {"system": "DU-145", "test": "NCI screen, growth of human tumor cells: Prostate Cancer DU-145", "assay_type": "cell-based", "details": "DU-145 (Prostate Cancer), 10^−4 molar", "method_in_brief": "as §1"}, "MCF 7": {"system": "MCF 7", "test": "NCI screen, growth of human tumor cells: Breast Cancer MCF 7", "assay_type": "cell-based", "details": "MCF 7 (Breast Cancer), 10^−4 molar", "method_in_brief": "as §1"}, "MCF7/ADR-RES": {"system": "MCF7/ADR-RES", "test": "NCI screen, growth of human tumor cells: Breast Cancer MCF7/ADR-RES", "assay_type": "cell-based", "details": "MCF7/ADR-RES (Breast Cancer), 10^−4 molar", "method_in_brief": "as §1"}, "MDA-MB-231/ATCC": {"system": "MDA-MB-231/ATCC", "test": "NCI screen, growth of human tumor cells: Breast Cancer MDA-MB-231/ATCC", "assay_type": "cell-based", "details": "MDA-MB-231/ATCC (Breast Cancer), 10^−4 molar", "method_in_brief": "as §1"}, "MDA-MB-435": {"system": "MDA-MB-435", "test": "NCI screen, growth of human tumor cells: Breast Cancer MDA-MB-435", "assay_type": "cell-based", "details": "MDA-MB-435 (Breast Cancer), 10^−4 molar", "method_in_brief": "as §1"}, "MDA-N": {"system": "MDA-N", "test": "NCI screen, growth of human tumor cells: Breast Cancer MDA-N", "assay_type": "cell-based", "details": "10^−4 molar", "description": "(§2) In the NCI screening process, each compound was tested and described by a minimum of 60 data points. The test data include, but are not limited to the type of cancer, the molar concentration used in the screen, and the percent growth of the cancer. In some cases, NMR and elemental analysis were used for structural assignment."}, "human cancer cells": {"system": "human cancer cells", "test": "NCI screen summary over the cancers tested (negative growth of human cancer cells)", "assay_type": "cell-based", "details": "10^−4 M conc.; cancers with negative growth / cancers tested", "description": "as §2\nThe derivatives in the tables are grouped using the same category as in the tables 1-6."}, "[1]": {"test": "Water solubility noted at isolation", "assay_type": "physicochemical", "details": "observation on the isolated product", "description": "To a solution of 0.8 g of ethylene bromomethanedisulfonate (91-5) in 50 mL of glyme with 0.2 g of NaH was added followed by 0.6 g of the anhydride of 1,2-ethanedisulfonic acid. After 24 hrs, the solvent was removed and the residue taken up in 10 mL of acetone to give 0.5 g of water soluble 96-13.\nTo a solution of 0.58 g of ethylene methanedisulfonate in 50 mL of glyme and 0.2 g of NaH was added 0.65 g of 8-quinolinesulfonyl chloride. After 3 hrs., the solution was filtered, and the solid was washed with CH2Cl2 and dried overnight to give 1.155 g of a mixture of NaCl, Na2CO3, and product. A sample was H2O soluble and the calculated yield, based on assumption of the NaCl and Na2CO3, was 0.848 g (71%) of 97-4."}}, "data": [{"smiles": "O=S1(=O)OCCOS(=O)(=O)C1c1cccc2cccnc12", "note": "[NSC 698122, ethylene 8-quinolylmethanedisulfonate]", "values": [{"measurement": "percent of growth of human tumor cells", "setting": "EKVX", "value": 28, "unit": "%"}, {"measurement": "percent of growth of human tumor cells", "setting": "NCI-H522", "value": "−40", "unit": "%"}, {"measurement": "percent of growth of human tumor cells", "setting": "NCI-H460", "value": "−40", "unit": "%"}, {"measurement": "percent of growth of human tumor cells", "setting": "NCI-H23", "value": 27, "unit": "%"}, {"measurement": "percent of growth of human tumor cells", "setting": "HCC-2998", "value": "−12", "unit": "%"}, {"measurement": "percent of growth of human tumor cells", "setting": "HCT-116", "value": 16, "unit": "%"}, {"measurement": "percent of growth of human tumor cells", "setting": "HCT-15", "value": 18, "unit": "%"}, {"measurement": "% Growth", "setting": "HT29", "value": "−64", "unit": "%"}, {"measurement": "percent of growth of human tumor cells", "setting": "KM12", "value": 7, "unit": "%"}, {"measurement": "percent of growth of human tumor cells", "setting": "SF-268", "value": 24, "unit": "%"}, {"measurement": "percent of growth of human tumor cells", "setting": "SF-295", "value": 18, "unit": "%"}, {"measurement": "percent of growth of human tumor cells", "setting": "SF-539", "value": 30, "unit": "%"}, {"measurement": "percent of growth of human tumor cells", "setting": "U-251", "value": "−53", "unit": "%"}, {"measurement": "percent of growth of human tumor cells", "setting": "LOXIMVI", "value": "−43", "unit": "%"}, {"measurement": "percent of growth of human tumor cells", "setting": "M14", "value": 10, "unit": "%"}, {"measurement": "percent of growth of human tumor cells", "setting": "MALME-3M", "value": 29, "unit": "%"}, {"measurement": "percent of growth of human tumor cells", "setting": "SK-MEL-2", "value": 24, "unit": "%"}, {"measurement": "percent of growth of human tumor cells", "setting": "SK-MEL-5", "value": 15, "unit": "%"}, {"measurement": "percent of growth of human tumor cells", "setting": "UACC-257", "value": 13, "unit": "%"}, {"measurement": "percent of growth of human tumor cells", "setting": "UACC-62", "value": "−46", "unit": "%"}, {"measurement": "percent of growth of human tumor cells", "setting": "IGROVI", "value": 17, "unit": "%"}, {"measurement": "percent of growth of human tumor cells", "setting": "OVCAR-3", "value": 25, "unit": "%"}, {"measurement": "percent of growth of human tumor cells", "setting": "OVCAR-4", "value": 30, "unit": "%"}, {"measurement": "percent of growth of human tumor cells", "setting": "OVCAR-8", "value": 19, "unit": "%"}, {"measurement": "percent of growth of human tumor cells", "setting": "SN12C", "value": 28, "unit": "%"}, {"measurement": "percent of growth of human tumor cells", "setting": "DU-145", "value": 2, "unit": "%"}, {"measurement": "percent of growth of human tumor cells", "setting": "MCF 7", "value": 12, "unit": "%"}, {"measurement": "percent of growth of human tumor cells", "setting": "MCF7/ADR-RES", "value": "−5", "unit": "%"}, {"measurement": "percent of growth of human tumor cells", "setting": "MDA-MB-231/ATCC", "value": 26, "unit": "%"}, {"measurement": "percent of growth of human tumor cells", "setting": "MDA-MB-435", "value": 19, "unit": "%"}, {"measurement": "percent of growth of human tumor cells", "setting": "MDA-N", "value": 10, "unit": "%"}, {"measurement": "Percentage of cancers showing negative growth cancers tested", "setting": "human cancer cells", "value": "10^−4 M conc. = 8/31 = 25.8%"}, {"measurement": "water solubility", "setting": "[1]", "value": "H2O soluble"}]}]}
